Laboratory results published in patent US20240208954A1, “OXADIAZOLE COMPOUND, PREPARATION METHOD THEREFOR, PHARMACEUTICAL COMPOSITION AND USE THEREOF” (SHANGHAI INSTITUTE OF MATERIA MEDICA, CHINESE ACADEMY OF …, priority 2020, published 2024).
Several values for one entry are separate records, joined by “and”; a condition that tells them apart may be missing. Equal entries are not always repeated. Where two headings read alike, the source gives them in different places.

Assay: Preliminary assessment of pharmacokinetics in mice
Type: in vivo, CD-1 mice
Experimental: Dosing Regimen 9 CD-1 mice, male, weighing 20-26 g, were randomly divided into 3 groups with 3 mice in each group. The test compounds were administered intragastric, intravenously or intraperitoneally according to the following protocol. The mice were fasted for 12 h before the test and drank water freely. Food was consumed uniformly 2 h after administration. [table] The intragastric administration solution was prepared with DMSO/0.5% HPMC(5/95, v/v) to the final concentration. Intravenous and intraperitoneal administration solution was formulated with DMSO/PEG300/EtOH/NaCl(5/40/5/50, v/v/v). The sample of the administration solution was left (50 μL of the solution was mixed with 50 μL of DMSO before and after the administration, respectively) for test. The drug was given according to the above dose, the time of administration was recorded, and 20 μL of blood was taken from the femoral plexus of mice at the above set time points and placed in heparinized tubes. The blood was immediately centrifuged at 11000 rpm for 5 min. 10 μL of plasma was immediately and accurately sucked into a centrifuge tube prefilled with 100 μL of PK-IS solution (prepared with methanol: acetonitrile (1:1,v/v)), well mixed, and freezed at −20° C. for test.

## CC(C)Oc1ccc(-c2nc(-c3ccc(CN4CC(C(=O)O)C4)c4ccccc34)no2)cc1C#N.Cl [Compound A1, 1-((4-(5-(3-cyano-4-isopropoxyphenyl)-1,2,4-oxadiazol-3-yl)naphthalen-1-yl)methyl) azetidine-3-carboxylic acid hydrochloric acid]
Intraperitoneal injection 20 mg/kg, 0.05 h, individual animals 4-6, 20 mg/kg
  Concentration of A1 Drug in Plasma of Mice: 1105 ng/mL and 473 ng/mL and 715 ng/mL
Intraperitoneal injection 20 mg/kg, 0.25 h, individual animals 4-6, 20 mg/kg
  Concentration of A1 Drug in Plasma of Mice: 827 ng/mL and 1507 ng/mL
Intraperitoneal injection 20 mg/kg, 0.75 h, individual animals 4-6, 20 mg/kg
  Concentration of A1 Drug in Plasma of Mice: 1206 ng/mL and 1534 ng/mL and 3318 ng/mL
Intraperitoneal injection 20 mg/kg, 2.00 h, individual animals 4-6, 20 mg/kg
  Concentration of A1 Drug in Plasma of Mice: 516 ng/mL and 1443 ng/mL and 4405 ng/mL
Intraperitoneal injection 20 mg/kg, 4.00 h, individual animals 4-6, 20 mg/kg
  Concentration of A1 Drug in Plasma of Mice: 376 ng/mL and 201 ng/mL and 535 ng/mL
Intraperitoneal injection 20 mg/kg, 8.00 h, individual animals 4-6, 20 mg/kg
  Concentration of A1 Drug in Plasma of Mice: 273 ng/mL and 78.2 ng/mL and 119 ng/mL
Intraperitoneal injection 20 mg/kg, 24.0 h, individual animals 4-6, 20 mg/kg
  Concentration of A1 Drug in Plasma of Mice: 86.9 ng/mL and 26.5 ng/mL and 35.0 ng/mL
male, CD-1, mouse, plasma, intraperitoneal, 20 mg/kg, title: intraperitoneal 20 mg/kg, 0.25 h, mean, read-out: Concentration of A1 Drug in Plasma of Mice
  concentration at 0.25 h: 1740 ng/mL
male, CD-1, mouse, plasma, intraperitoneal, 20 mg/kg, title: intraperitoneal 20 mg/kg, 0.50 h, mean, read-out: Concentration of A1 Drug in Plasma of Mice
  concentration at 0.5 h: 2160 ng/mL
male, CD-1, mouse, plasma, intraperitoneal, 20 mg/kg, title: intraperitoneal 20 mg/kg, 1.00 h, mean, read-out: Concentration of A1 Drug in Plasma of Mice
  concentration at 1 h: 2600 ng/mL
male, CD-1, mouse, plasma, intraperitoneal, 20 mg/kg, title: intraperitoneal 20 mg/kg, 2.00 h, mean, read-out: Concentration of A1 Drug in Plasma of Mice
  concentration at 2 h: 1180 ng/mL
male, CD-1, mouse, plasma, intraperitoneal, 20 mg/kg, title: intraperitoneal 20 mg/kg, 4.00 h, mean, read-out: Concentration of A1 Drug in Plasma of Mice
  concentration at 4 h: 142 ng/mL
male, CD-1, mouse, plasma, intraperitoneal, 20 mg/kg, title: intraperitoneal 20 mg/kg, 8.00 h, mean, read-out: Concentration of A1 Drug in Plasma of Mice
  concentration at 8 h: 24.6 ng/mL
male, CD-1, mouse, plasma, intraperitoneal, 20 mg/kg, title: intraperitoneal 20 mg/kg, 24.0 h, individual animals 1-3, read-out: Concentration of A1 Drug in Plasma of Mice
  concentration at 24 h: 4.8 ng/mL
male, CD-1, mouse, plasma, intraperitoneal, 20 mg/kg, title: intraperitoneal 20 mg/kg, 24.0 h, mean, read-out: Concentration of A1 Drug in Plasma of Mice
  concentration at 24 h: 4.13 ng/mL
male, CD-1, mouse, plasma, ip, 20 mg/kg, intraperitoneal injection 20 mg/kg, 0.05 h, mean, read-out: Concentration of A1 Drug in Plasma of Mice
  concentration at 0.05 h: 764 ng/mL
male, CD-1, mouse, plasma, ip, 20 mg/kg, intraperitoneal injection 20 mg/kg, 0.25 h, individual animals 4-6, read-out: Concentration of A1 Drug in Plasma of Mice
  concentration at 0.25 h: 1170 ng/mL
male, CD-1, mouse, plasma, ip, 20 mg/kg, intraperitoneal injection 20 mg/kg, 0.25 h, mean, read-out: Concentration of A1 Drug in Plasma of Mice
  concentration at 0.25 h: 1170 ng/mL
male, CD-1, mouse, plasma, ip, 20 mg/kg, intraperitoneal injection 20 mg/kg, 0.75 h, mean, read-out: Concentration of A1 Drug in Plasma of Mice
  concentration at 0.75 h: 2020 ng/mL
male, CD-1, mouse, plasma, ip, 20 mg/kg, intraperitoneal injection 20 mg/kg, 2.00 h, mean, read-out: Concentration of A1 Drug in Plasma of Mice
  concentration at 2 h: 2120 ng/mL
male, CD-1, mouse, plasma, ip, 20 mg/kg, intraperitoneal injection 20 mg/kg, 4.00 h, mean, read-out: Concentration of A1 Drug in Plasma of Mice
  concentration at 4 h: 370 ng/mL
male, CD-1, mouse, plasma, ip, 20 mg/kg, intraperitoneal injection 20 mg/kg, 8.00 h, mean, read-out: Concentration of A1 Drug in Plasma of Mice
  concentration at 8 h: 157 ng/mL
male, CD-1, mouse, plasma, ip, 20 mg/kg, intraperitoneal injection 20 mg/kg, 24.0 h, mean, read-out: Concentration of A1 Drug in Plasma of Mice
  concentration at 24 h: 49.5 ng/mL
male, CD-1, mouse, plasma, po, 2 mg/kg, title: oral 2 mg/kg, 0.05 h, individual animals 4-6, read-out: Concentration of A1 Drug in Plasma of Mice
  concentration at 0.05 h: 1790 ng/mL
male, CD-1, mouse, plasma, po, 2 mg/kg, title: oral 2 mg/kg, 0.05 h, mean, read-out: Concentration of A1 Drug in Plasma of Mice
  concentration at 0.05 h: 1940 ng/mL
male, CD-1, mouse, plasma, po, 2 mg/kg, title: oral 2 mg/kg, 0.25 h, individual animals 4-6, read-out: Concentration of A1 Drug in Plasma of Mice
  concentration at 0.25 h: 1040 ng/mL
male, CD-1, mouse, plasma, po, 2 mg/kg, title: oral 2 mg/kg, 0.25 h, mean, read-out: Concentration of A1 Drug in Plasma of Mice
  concentration at 0.25 h: 878 ng/mL
male, CD-1, mouse, plasma, po, 2 mg/kg, title: oral 2 mg/kg, 0.75 h, individual animals 4-6, read-out: Concentration of A1 Drug in Plasma of Mice
  concentration at 0.75 h: 178 ng/mL
male, CD-1, mouse, plasma, po, 2 mg/kg, title: oral 2 mg/kg, 0.75 h, mean, read-out: Concentration of A1 Drug in Plasma of Mice
  concentration at 0.75 h: 169 ng/mL
male, CD-1, mouse, plasma, po, 2 mg/kg, title: oral 2 mg/kg, 2.00 h, individual animals 4-6, read-out: Concentration of A1 Drug in Plasma of Mice
  concentration at 2 h: 49.2 ng/mL
male, CD-1, mouse, plasma, po, 2 mg/kg, title: oral 2 mg/kg, 2.00 h, mean, read-out: Concentration of A1 Drug in Plasma of Mice
  concentration at 2 h: 49.8 ng/mL
male, CD-1, mouse, plasma, po, 2 mg/kg, title: oral 2 mg/kg, 4.00 h, mean, read-out: Concentration of A1 Drug in Plasma of Mice
  concentration at 4 h: 8.43 ng/mL
male, CD-1, mouse, plasma, po, 2 mg/kg, title: oral 2 mg/kg, 8.00 h, mean, read-out: Concentration of A1 Drug in Plasma of Mice
  concentration at 8 h: 3.97 ng/mL
male, CD-1, mouse, plasma, po, 2 mg/kg, title: oral 2 mg/kg, 24.0 h, individual animals 4-6, read-out: Concentration of A1 Drug in Plasma of Mice
  concentration at 24 h: 0.5 ng/mL
male, CD-1, mouse, plasma, po, 2 mg/kg, title: oral 2 mg/kg, 24.0 h, mean, read-out: Concentration of A1 Drug in Plasma of Mice
  concentration at 24 h: 0.6 ng/mL
title: intraperitoneal 20 mg/kg, 0.25 h, individual animals 1-3
  Concentration of A1 Drug in Plasma of Mice: 1095 ng/mL and 1070 ng/mL and 3041 ng/mL
title: intraperitoneal 20 mg/kg, 0.50 h, individual animals 1-3
  Concentration of A1 Drug in Plasma of Mice: 1574 ng/mL and 1388 ng/mL and 3514 ng/mL
title: intraperitoneal 20 mg/kg, 1.00 h, individual animals 1-3
  Concentration of A1 Drug in Plasma of Mice: 1914 ng/mL and 1843 ng/mL and 4055 ng/mL
title: intraperitoneal 20 mg/kg, 2.00 h, individual animals 1-3
  Concentration of A1 Drug in Plasma of Mice: 571 ng/mL and 1318 ng/mL and 1662 ng/mL
title: intraperitoneal 20 mg/kg, 4.00 h, individual animals 1-3
  Concentration of A1 Drug in Plasma of Mice: 146 ng/mL and 215 ng/mL and 65.0 ng/mL
title: intraperitoneal 20 mg/kg, 8.00 h, individual animals 1-3
  Concentration of A1 Drug in Plasma of Mice: 25.8 ng/mL and 36.4 ng/mL and 11.5 ng/mL
